Results on 21 compounds are retold here after patent US9770446B2, “Piperidine urea derivatives” (MERCK PATENT GMBH, priority 2013, dated 2017).

SMILES strings stand for the structures. Some results are limits rather than exact numbers.

Holding throughout (format): biochemical
Assay [1] deals with T1, GST-tagged Tnks-1 (1023-1327 aa) (Homo sapiens, UniProt O95271).
T1 construct: GST-tagged Tnks-1 (1023-1327 aa, prepared in-house); made in house
The experiment in a line: TNKS1 activity ELISA (autoparsylation assay). A digest of the protocol:
(§1)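 Each GST-tagged enzyme (20 ng/well) was captured overnight at 4 °C on glutathione plates, then auto-ADP-ribosylated with 10 μM biotin-NAD for 1 h at 30 °C, pH 7.7, 0.5% DMSO, compound at 10 concentrations. Streptavidin-HRP chemiluminescence measured the signal. IC50 relative to inhibitor-free reaction, with 5 μM XAV-939 defining zero.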
(In general: ELISA stands for enzyme-linked immunosorbent assay.)

The target in assay [2] is T2, GST-tagged Tankyrase-1 (1023-1327 aa) (Homo sapiens, UniProt O95271).
T2 construct: GST-tagged Tankyrase-1 (1023-1327 aa)
The experiment in a line: Tankyrase 1 autoparsylation HTRF enzyme assay. The note with it: read-out: IC50 TNKS1 enzyme assay. Here is the method: Biochemical activity testing of Tankyrase 1 and 2: Autoparsylation assay
The autoparsylation assay is run in two steps: the enzymatic reaction in which GST-tagged Tankyrase-1, resp Tankyrase-2 transferred biotinylated ADP-ribose to itself from biotinylated NAD as co-substrate and the detection reaction where a time resolved FRET between cryptate labelled anti-GST bound to the GST tag of the enzyme and Xlent® labelled-streptavidin bound the biotin-parsylation residue is analysed. The autoparsylation activity was detectable directly via the increase in HTRF signal.
The autoparsylation assay is performed as 384-well HTRF® (Cisbio, Codolet, France) assay format in Greiner low volume nb 384-well microtiter plates and is used for high throughput screen. 250 nM GST-tagged Tankyrase-1 (1023-1327 aa), respectively about 250 nM GST-tagged Tankyrase-2 (873-1166 aa) and 5 μM bio-NAD (Biolog, Life science Inst., Bremen, Germany) as co-substrate are incubated in a total volume of 5 μl (50 mM HEPES, 4 mM Mg-chloride, 0.05% Pluronic F-68, 1.4 mM DTT, 0.5% DMSO, pH 7.7) in the absence or presence of the test compound (10 dilution concentrations) for 90 min at 30° C. The reaction is stopped by the addition of 1 μl 50 mM EDTA solution. 2 μl of the detection solution (1.6 μM SA-Xlent® (Cisbio, Codolet, France), 7.4 nM Anti-GST-K® (Eu-labelled anti-GST, Cisbio, Codolet, France) in 50 mM HEPES, 800 mM KF, 0.1% BSA, 20 mM EDTA, 0.1% CHAPS, pH 7.0) are added. After 1 h incubation at room temperature the HTRF is measured with an Envision multimode reader (Perkin Elmer LAS Germany GmbH) at excitation wavelength 340 nm (laser mode) and emission wavelengths 615 nm and 665 nm. The ratio of the emission signals is determined. The full value used is the inhibitor-free reaction. The pharmacological zero value used is XAV-939 (Tocris) in a final concentration of 5 μM. The inhibitory values (IC50) are determined using either the program Symyx Assay Explorer® or Condosseo® from GeneData.

Assay [3] has as its target T3, GST-tagged Tnks-2 (873-1166 aa) (Homo sapiens, UniProt Q9H2K2).
T3 construct: GST-tagged Tnks-2 (873-1166 aa, prepared in-house); made in house
The assay can be described thus: TNKS2 activity ELISA (autoparsylation assay). A digest of the protocol: as §1

Usually IC50 stands for the concentration needed to halve the response being measured.

T2 sequence (O95271 1023-1327): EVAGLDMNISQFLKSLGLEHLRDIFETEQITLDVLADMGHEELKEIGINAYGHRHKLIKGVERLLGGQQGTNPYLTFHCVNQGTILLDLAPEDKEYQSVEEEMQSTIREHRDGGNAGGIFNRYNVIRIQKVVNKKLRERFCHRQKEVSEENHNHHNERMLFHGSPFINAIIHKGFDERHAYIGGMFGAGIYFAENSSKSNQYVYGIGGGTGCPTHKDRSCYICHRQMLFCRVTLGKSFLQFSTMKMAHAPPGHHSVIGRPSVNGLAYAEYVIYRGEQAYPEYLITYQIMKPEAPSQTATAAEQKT
T1 sequence (O95271 1023-1327): as above
T3 sequence (Q9H2K2 873-1166): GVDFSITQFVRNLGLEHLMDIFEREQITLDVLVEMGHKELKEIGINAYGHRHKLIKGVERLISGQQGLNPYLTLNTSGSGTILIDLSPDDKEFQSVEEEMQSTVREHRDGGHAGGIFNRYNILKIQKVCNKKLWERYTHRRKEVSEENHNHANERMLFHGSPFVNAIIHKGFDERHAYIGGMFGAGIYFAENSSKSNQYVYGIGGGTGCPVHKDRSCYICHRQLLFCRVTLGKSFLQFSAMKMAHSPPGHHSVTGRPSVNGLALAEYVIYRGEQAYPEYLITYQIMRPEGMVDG

Consider `COc1ccc(N(C)C(=O)N2CCC(C(=O)c3ccc(F)cc3)CC2)cc1` [Compound A8, 4-(4-fluoro-benzoyl)-piperidine-1-carboxylic acid (4-methoxy-phenyl)-methylamide], for which the results for the IC50 in assay [1], in assay [2] and in assay [3] were less than 0.3 µM, 0.3 to 3 µM and less than 0.3 µM, respectively.

On to `CCN(C(=O)N1CCC(C(=O)c2cccc(OC)c2)CC1)c1ccc(OC)cc1` [Compound A28, 4-(3-methoxy-benzoyl)-piperidine-1-carboxylic acid ethyl-(4-methoxy-phenyl)amide], for which the IC50 in assay [1], in assay [2] and in assay [3] was less than 0.3 µM each time.

As to `O=C(c1ccccc1)C1CCN(C(=O)N2CCc3ccccc32)CC1` [Compound A16, (4-benzoyl-piperidin-1-yl)-(2,3-dihydro-indol-1-yl)-methanone], the values for the IC50 in assay [1], in assay [2] and in assay [3] were less than 0.3 µM, 0.3 to 3 µM and less than 0.3 µM, respectively.

As to `CCN(C(=O)N1CCC(C(=O)c2ccc(OC)c(C)c2)CC1)c1ccc(OC)cc1` [Compound A24, 4-(4-methoxy-3-methyl-benzoyl)-piperidine-1-carboxylic acid ethyl-(4-methoxy-phenyl)-amide], the IC50 in assay [1], in assay [2] and in assay [3] was less than 0.3 µM each time.

Take `COc1ccc(C(=O)C2CCN(C(=O)N3CCc4ccccc43)CC2)cc1` [Compound A18, (2,3-dihydro-indol-1-yl)-[4-(4-methoxy-benzoyl)-piperidin-1-yl]-methanone]: the IC50 was less than 0.3 µM in assay [1], 0.3 to 3 µM in assay [2] and less than 0.3 µM in assay [3].

Consider `COc1ccc(N(CCO)C(=O)N2CCC(C(=O)c3ccccc3)CC2)cc1` [Compound A15, 4-benzoyl-piperidine-1-carboxylic acid (2-hydroxy-ethyl)-(4-methoxy-phenyl)amide], for which the figures for the IC50 in assay [1], in assay [2] and in assay [3] were less than 0.3 µM, 0.3 to 3 µM and less than 0.3 µM, respectively.

As to `COc1ccc(N(C)C(=O)N2CCC(C(=O)c3ccccc3)CC2)cc1` [Compound A4, 4-benzoyl-piperidine-1-carboxylic acid (4-methoxy-phenyl)-methyl-amide], the values for the IC50 in assay [1], in assay [2] and in assay [3] were less than 0.3 µM, 0.3 to 3 µM and less than 0.3 µM, respectively.

In the case of `COc1ccc(N(C)C(=O)N2CCC(C(=O)c3cccc(F)c3)CC2)cc1` [Compound A7, 4-(3-fluoro-benzoyl)-piperidine-1-carboxylic acid (4-methoxy-phenyl)-methylamide], the figures for the IC50 in assay [1], in assay [2] and in assay [3] were less than 0.3 µM, 0.3 to 3 µM and less than 0.3 µM, respectively.

Consider `COc1ccc(N(C)C(=O)N2CCC(C(=O)c3ccc(OC)c(F)c3)CC2)cc1` [Compound A29, 4-(3-fluoro-4-methoxy-benzoyl)-piperidine-1-carboxylic acid (4-methoxy-phenyl)-methyl-amide], for which the IC50 in assay [1] and in assay [3] was less than 0.3 µM throughout.

Regarding `COc1ccc(C(=O)C2CCN(C(=O)N(C)c3ccc(OC)cc3)CC2)cc1` [Compound A6, 4-(4-methoxy-benzoyl)-piperidine-1-carboxylic acid (4-methoxy-phenyl)methyl-amide], the IC50 in assay [1], in assay [2] and in assay [3] was less than 0.3 µM each time.

Regarding `CN(C(=O)N1CCC(C(=O)c2ccc(NS(C)(=O)=O)cc2)CC1)c1ccccc1` [Compound A38, 4-(4-methanesulfonylamino-benzoyl)-piperidine-1-carboxylic acid methyl-phenyl-amide], the IC50 in assay [1], in assay [2] and in assay [3] was less than 0.3 µM each time.

For `Cc1ccc(N(C)C(=O)N2CCC(C(=O)c3ccccc3)CC2)cc1` [Compound A2, 4-benzoyl-piperidine-1-carboxylic acid methyl-p-tolyl-amide], the IC50 in assay [1] is less than 0.3 µM; in assay [2] it was 0.3 to 3 µM; in assay [3] it was less than 0.3 µM.

In the case of `CCOC(=O)CN(C(=O)N1CCC(C(=O)c2ccc(OC)cc2)CC1)c1ccccc1` [Compound A40, {[4-(4-methoxy-benzoyl)-piperidine-1-carbonyl]-phenyl-amino}-acetic acid ethyl ester], the IC50 in assay [1], in assay [2] and in assay [3] was less than 0.3 µM in each case.

Consider `CN(C(=O)N1CCC(C(=O)c2ccccc2)CC1)c1ccc(F)cc1` [Compound A13, 4-benzoyl-piperidine-1-carboxylic acid (4-fluoro-phenyl)-methyl-amide], for which the IC50 was less than 0.3 µM in assay [1], 0.3 to 3 µM in assay [2] and less than 0.3 µM in assay [3].

As for `COc1ccc(N(C)C(=O)N2CCC(C(=O)c3cccc(C)c3)CC2)cc1` [Compound A25, 4-(3-methyl-benzoyl)-piperidine-1-carboxylic acid (4-methoxy-phenyl)methyl-amide], the IC50 in assay [1], in assay [2] and in assay [3] was less than 0.3 µM throughout.

For `CCN(C(=O)N1CCC(C(=O)c2ccccc2)CC1)c1ccc(OC)cc1` [Compound A14, 4-benzoyl-piperidine-1-carboxylic acid ethyl-(4-methoxy-phenyl)-amide], the IC50 in assay [1], in assay [2] and in assay [3] was less than 0.3 µM throughout.

As to `CCN(C(=O)N1CCC(C(=O)c2cccc(C)c2)CC1)c1ccc(OC)cc1` [Compound A26, 4-(3-methyl-benzoyl)-piperidine-1-carboxylic acid ethyl-(4-methoxy-phenyl)amide], the IC50 in assay [1], in assay [2] and in assay [3] was less than 0.3 µM each time.

For the compound `COc1ccc(N(C)C(=O)N2CCC(C(=O)c3ccc(C)cc3)CC2)cc1` [Compound A5, 4-(4-methyl-benzoyl)-piperidine-1-carboxylic acid (4-methoxy-phenyl)-methylamide], the IC50 in assay [1], in assay [2] and in assay [3] was less than 0.3 µM in each case.

As for `Cc1ccc(C(=O)C2CCN(C(=O)N3CCc4ccccc43)CC2)cc1` [Compound A17, (2,3-dihydro-indol-1-yl)-[4-(4-methyl-benzoyl)-piperidin-1-yl]-methanone], the IC50 was less than 0.3 µM in assay [1], 0.3 to 3 µM in assay [2] and less than 0.3 µM in assay [3].

`COc1ccc(N(C)C(=O)N2CCC(C(=O)c3cccc(OC)c3)CC2)cc1` [Compound A27, 4-(3-methoxy-benzoyl)-piperidine-1-carboxylic acid (4-methoxy-phenyl)methyl-amide]: the IC50 in assay [1], in assay [2] and in assay [3] was less than 0.3 µM throughout.

Regarding `Cc1cccc(N(C)C(=O)N2CCC(C(=O)c3ccccc3)CC2)c1` [Compound A1, 4-benzoyl-piperidine-1-carboxylic acid methyl-m-tolyl-amide], the IC50 in assay [1] was less than 0.3 µM; in assay [2] it was 0.3 to 3 µM; in assay [3] it was less than 0.3 µM.
